Test results: patent US11649440B2, “Thermostabilized Amadoriases and uses thereof” (FONDAZIONE ISTITUTO ITALIANO DI TECNOLOGIA, priority 2017, dated 2023)

How the values were obtained:
[1] = target: T1, Aspergillus fumigatus Amadoriase I variant SS03 (Ser67Cys + Pro121Cys), SEQ ID NO: 4 (Aspergillus fumigatus, UniProt O42629, P121C/S67C); assay: Steady-state kinetics of Amadoriase variant SS03 towards fructosyl-lysine (glucosone formation at 322 nm); format: biochemical; conditions: apparent, fructosyl-lysine 0.05 mM to 2 mM, 10 mM Tris HCl pH 7.4, 20 mM o-Phenylenediamine, three independent experiments
T1 construct: E. coli codon-optimised gene in bacterial (Novagen, pET-type) vector
Method: (§1) Enzymatic activity was followed by a continuous assay that detects glucosone formation over time from fructosyl-lysine at 322 nm. The 200 μl reaction mixture contained 10 mM Tris HCl pH 7.4, 20 mM o-Phenylenediamine, 2 mM fructosyl-lysine. After 1 minute of pre-incubation, the reaction was started adding 4.5 μg of enzyme, and the increase in absorbance at 322 nm (glucosone ε322=149.25 M^−1cm^−1) was monitored in a Spark10M (Tecan).
(§2) Apparent steady-state parameters for the enzymes over its natural substrate were determined by means of the assay described above, with fructosyl-lysine concentrations varied from 0.05 mM to 2 mM. Data points were obtained from three independent experiments. Kinetic parameters were calculated using a non-linear least-square fit of the data, and fitted with Eq. 1 (the Michaelis-Menten equation for hyperbolic substrate kinetics) using Hyperbola fit function of GraphPad Prism version 5.00 for Windows, GraphPad Software, La Jolla Calif. USA.
(§3) [formula] in which v, Vmax, S, and Km represent the steady state reaction rate, maximum reaction rate, substrate concentration, and Michaelis-Menten constant for the substrate, respectively.

[2] = target: T2, Aspergillus fumigatus Amadoriase I variant SS17 (Asp295Cys + Lys303Cys), SEQ ID NO: 6 (Aspergillus fumigatus, UniProt O42629, D295C/K303C); assay: Steady-state kinetics of Amadoriase variant SS17 towards fructosyl-lysine (glucosone formation at 322 nm); format: biochemical; conditions: apparent, fructosyl-lysine 0.05 mM to 2 mM, 10 mM Tris HCl pH 7.4, 20 mM o-Phenylenediamine, three independent experiments
T2 construct: E. coli codon-optimised gene in bacterial (Novagen, pET-type) vector
Method: as §1, §2, §3

**Q.** What does the source list for `N[C@@H](CCCCNCC(=O)[C@@H](O)[C@H](O)[C@H](O)CO)C(=O)O` [fructosyl-lysine]?
**A.** kcat [1]: 21.90 ± 2.73 s⁻¹; kcat/Km [1]: 64170 ± 25500 M⁻¹ s⁻¹; kcat [2]: 22.91 ± 2.12 s⁻¹; kcat/Km [2]: 33340 ± 10160 M⁻¹ s⁻¹
